This is an account of results in article PMC5754923 (Journal of medicinal chemistry, 2017).

Molecules are shown by their SMILES. pEC50, pIC50, pKd: −log10 of the molar value. “Also recorded” adds a separate entry of the source. Read-outs that look alike come from different tables or passages of the source.

One data set deals with T cells. Description: Toxicity towards the T cells in the expansion assay. The class given is cell-based, human.
In data set [1] the target is T1, full intracellular domain of BTN3A1 (Homo sapiens, UniProt O00481). The experiment in a line: Isothermal titration calorimetry. The data set is classed as binding. The note with it: for Binding to BTN3A1: purified BTN3A1, direct titration.
Data set [2] has as its system Vγ9Vδ2 T cells. Description: Expansion of Vγ9Vδ2 T cells from peripheral blood. The data set is classed as cell-based, human. The conditions noted are these: for Stimulation of Vγ9Vδ2 T cell proliferation: 0.1 µM, CD3+/γδ TCR+ population; for Fold difference from salt: prodrug versus unprotected salt.
The subject of data set [3] is K562 cells. The experiment in a line: K562 proliferation. The data set is classed as cell-based, human.
The subject of data set [4] is K562 cells. The note with it: statement of the discussion, not tested here; ref not given; cited from earlier work.
In data set [5] the target is T1, full intracellular domain of BTN3A1. The conditions noted are these: known Kd, ref not given; cited from earlier work.
Data set [6] has as its system K562 cells. The experiment in a line: Vγ9Vδ2 T cell mediated lysis of K562 cells. The conditions noted are these: for Fold difference from salt, lysis: 2 hour treatment/4 hour co-culture.
Data set [7] is described as follows: HPLC and HPLC-MS analysis in aqueous acetonitrile. The class given is physicochemical.
Data set [8] deals with Vγ9Vδ2 T cells. The conditions noted are these: expansion from peripheral blood; ref [10]; cited from earlier work.
The mark [9] stands for this setting: presence of 10-fold higher compound 8.
Setting [10] is: presence of 100-fold molar excess of compound 8.

T1 sequence (O00481 272-513 limits assumed): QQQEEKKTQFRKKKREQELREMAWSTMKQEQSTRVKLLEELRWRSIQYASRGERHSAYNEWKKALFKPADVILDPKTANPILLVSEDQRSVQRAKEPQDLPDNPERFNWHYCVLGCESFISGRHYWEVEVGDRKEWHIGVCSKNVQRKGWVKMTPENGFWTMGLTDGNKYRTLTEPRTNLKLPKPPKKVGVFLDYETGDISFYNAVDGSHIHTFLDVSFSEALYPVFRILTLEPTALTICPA

For `COP(=O)(CC/C=C(\C)CO)CP(=O)(OC)OC` (centres unmarked) [Compound 9, Dimethyl (E)-(((5-hydroxy-4-methylpent-3-en-1-yl)(methoxy)phosphoryl)methyl)phosphonate], the negative-log IC50 (pIC50) with T cells (toxicity in T cell expansion assay) is under 4.00; in the data set with K562 cells [3] (read-out: IC50, direct K562 toxicity, 72 hour treatment), under 4.00. The “Binding to BTN3A1” value in [1] was “neither binds to the protein”. Also, the “Agonist / biological activity” value in the data set with Vγ9Vδ2 T cells [2] is recorded as “nor is biologically active”. In the data set with Vγ9Vδ2 T cells [2] (PBMC exposed 72 hours, grown 11 days, flow cytometry), this compound showed a negative-log EC50 (pEC50) of under 4.00.
`O=P(O)(O)C(O)(Cn1ccnc1)P(=O)(O)O` [zoledronate]: the “Direct toxicity” value with K562 cells [4] is “do exhibit direct toxicity”.
As to `C/C(=C\CP(=O)(O)OP(=O)(O)O)CO` [C-HMBPP, (E)-4-hydroxy-3-methyl-but-2-enyl phosphonophosphate], in data set [5], the negative logarithm of the Kd (pKd) is 5.72.
For the compound `CC(C)=CCCP(=O)([O-])CP(=O)([O-])[O-].[Na+].[Na+].[Na+]` [Compound 8, Sodium (((4-methylpent-3-en-1-yl)oxidophosphoryl)methyl)phosphonate], the pEC50 in the data set on K562 cells [6] (Homo sapiens, K562, 2 h, read-out: EC50, lysis of K562 cells by T cells) is under 4.00; in the data set with Vγ9Vδ2 T cells [2] (Homo sapiens, T-cell), under 4.00. The pIC50 in the data set with T cells (Homo sapiens, T-cell) is under 4.00. In addition, in data set [1] (10x and 100x compound 8), the “Competition with HMBPP binding” value is on record as “capable of disrupting HMBPP binding in a dose-dependent manner”. For the same compound, the “Binding to BTN3A1” value in [1] is “too low to be measured directly; also recorded: intermediate affinity”.
As for `C/C(=C\CCP(=O)([O-])CP(=O)([O-])[O-])CO.[Na+].[Na+].[Na+]` [Compound 10, Sodium (E)-(((5-hydroxy-4-methylpent-3-en-1-yl)oxidophosphoryl)methyl)phosphonate], in the data set with T cells (Homo sapiens, T-cell), the pIC50 is under 4.00. For the same compound, the “Binding to BTN3A1” value in [1] is listed as “intermediate affinity”. The compound further gave a negative logarithm of the EC50 (pEC50) with Vγ9Vδ2 T cells [2] (Homo sapiens, T-cell) of 4.59.
For `C/C(=C\CCP(=O)(OCOC(=O)C(C)(C)C)OCOC(=O)C(C)(C)C)CO` [Compound 2], in the data set with K562 cells [4], the “Direct toxicity” value is “not directly toxic”.
For the compound `C=C(C)CCOP(=O)(O)OP(=O)(O)O` [IPP, isopentenyl diphosphate], the “Direct toxicity” value in the data set on K562 cells [4] is “not directly toxic”.
`C/C(=C\COP(=O)(O)OP(=O)(O)O)CO` [HMBPP, (E)-4-hydroxy-3-methyl-but-2-enyl diphosphate, reference compound]: the “Hill slope, K562 lysis” value in the data set on K562 cells [6] (four parameter non-linear regression) is on record as 0.69. The results for the “TΔS of HMBPP binding” value in data set [1] (absence of compound 8), in data set [1] (setting [9]) and in [1] (setting [10]) were -4.54 kcal/mol, -1.1 kcal/mol and “+28 kJ/mol”, respectively. The “ΔH of HMBPP binding” value in data set [1] (absence of compound 8) was -12.4 kcal/mol; in data set [1] (setting [9]), -9.32 kcal/mol; in data set [1] (setting [10]) it was -1.65 kcal/mol. Also, the “Stimulation of Vγ9Vδ2 T cell proliferation” value with Vγ9Vδ2 T cells [2] was “strongly stimulated proliferation”. The “Direct toxicity” value in the data set with K562 cells [3] was “not directly toxic”.
Consider `CC(C)=CCCP(=O)(CP(=O)(OCOC(=O)C(C)(C)C)OCOC(=O)C(C)(C)C)OCOC(=O)C(C)(C)C` (centres unmarked) [Compound 11, (((((4-Methylpent-3-en-1-yl)((pivaloyloxy)methoxy)phosphoryl)methyl)phosphoryl)bis(oxy))bis(methylene) bis(2,2-dimethylpropanoate)], for which the “Fold difference from salt, lysis” value in the data set on K562 cells [6] was over 14x. Moreover, the pIC50 in the data set with T cells (Homo sapiens, T-cell) was under 4.00. Besides, the “Agonist / biological activity” value in the data set with Vγ9Vδ2 T cells [2] is “No measurable agonist activity”. Further, the “Fold difference from HMBPP” value in the data set with Vγ9Vδ2 T cells [2] (EC50 ratio) is on record as under 0.0000051x. Besides, in the data set on Vγ9Vδ2 T cells [2] (Homo sapiens, T-cell), the negative logarithm of the EC50 (pEC50) was under 4.00. Besides, in the data set on K562 cells [3] (72 hour treatment), the “Fold difference from HMBPP, direct K562 toxicity” value is over 10x and the “Fold difference from salt, direct K562 toxicity” value is given as over 10x.
On to `C/C(=C\CCP(=O)(CP(=O)(OCOC(=O)C(C)(C)C)OCOC(=O)C(C)(C)C)OCOC(=O)C(C)(C)C)CO` (centres unmarked) [Compound 4, (E)-(((((5-Hydroxy-4-methylpent-3-en-1-yl)((pivaloyloxy)methoxy)phosphoryl)methyl)phosphoryl)bis(oxy))bis(methylene) bis(2,2-dimethylpropanoate)], for which, in the data set with K562 cells [6], the “Fold difference in cellular activity between compound 4 and 11” value is listed as 26 fold; the “Fold difference from salt, lysis” value amounted to 150 x. The “Fold difference from salt, lysis” value in the data set with K562 cells [6] (listed as POM3-CC-HMBPP (4)) is recorded as 146x. The “Stability in aqueous acetonitrile” value in [7] is “some minor isomerization”. Moreover, in the data set with T cells (Figure 2B), the “Concentrations with toxicity towards the T cells” value was at least 10 µM. Also, the “Binding to BTN3A1” value in [1] is given as “did not bind”. Further, the “Stimulation of Vγ9Vδ2 T cell proliferation” value in the data set on Vγ9Vδ2 T cells [2] was “strongly stimulated proliferation”. Also, in the data set with Vγ9Vδ2 T cells [2] (EC50 ratio), the “Fold difference from salt” value stood at 630 x. The “Fold difference from salt” value with Vγ9Vδ2 T cells [2] (EC50 ratio, listed as POM3-CC-HMBPP (4)) is listed as 630x (versus 10). Further, in the data set with Vγ9Vδ2 T cells [2] (Homo sapiens, T-cell), the negative-log EC50 (pEC50) is 7.39. Besides, in the data set on K562 cells [3] (72 hour treatment), the “Fold difference from HMBPP, direct K562 toxicity” value was over 29x and the “Fold difference from salt, direct K562 toxicity” value was over 29x.
On to `O=P(O)(O)C(O)(Cc1cccnc1)P(=O)(O)O` [risedronate], for which, in the data set on K562 cells [4], the “Direct toxicity” value is listed as “do exhibit direct toxicity”.
Take `C/C(=C\CCP(=O)(O)O)CO` [Compound 3]: the negative logarithm of the EC50 (pEC50) in the data set with Vγ9Vδ2 T cells [8] is 5.40.
